This note sets out measurements from the RepoRT retention time repository.

A short description of the data set: RP, Thermo Scientific Hypersil GOLD, 1.9 µm, 40 °C, 0.4 mL/min; A: water + 0.1% formic acid, pH 3; B: acetonitrile + 0.1% formic acid, pH 3; gradient (min/%B) 0/0 1/0 11/100 13/100 14/0 16/0. The note with it: stereoisomer not certain.

Structures can show the parent of a compound that is named as a salt.

As for `O=c1ccn(C2CC(O)C(CO)O2)c(=O)[nH]1` (stereo unspecified) [DEOXYURIDINE], the LC retention time turned out to be 1.24 min.
As to `CC(C)=CCCC(C)C1CCC2C3CC=C4CC(O)CCC4(C)C3CCC12C` (stereo unspecified) [DESMOSTEROL], the LC retention time was 13.9 min.
With `CC1NC(=O)NC1CCCCCC(=O)O` (stereo unspecified) [DETHIOBIOTIN] the figure was 5.47 min; with `CCCCCCCCCC(=O)OCC(COP(=O)([O-])OCC[N+](C)(C)C)OC(=O)CCCCCCCCC` (stereo unspecified) [DIDECANOYL-GLYCEROPHOSPHOCHOLINE], 11.1 min.
Consider `OCCNCCO` [DIETHANOLAMINE], for which the LC retention time came to 0.6 min.
Regarding `Nc1nc2c(c(=O)[nH]1)N=C(CNc1ccc(C(=O)NC(CCC(=O)O)C(=O)O)cc1)CN2` (stereo unspecified) [DIHYDROFOLATE], the LC retention time amounted to 4.54 min.
With `O=C1CC(C(=O)O)NC(=O)N1` (stereo unspecified) [DIHYDROOROTATE], the LC retention time worked out at 0.77 min.
With `O=C1CCNC(=O)N1` [DIHYDROURACIL] the figure was 0.82 min; with `O=C(CO)COP(=O)(O)O` [DIHYDROXYACETONE PHOSPHATE], 0.69 min; with `NCCc1ccc(O)c(O)c1` [DOPAMINE], 0.83 min.
With `CCCCCCCCCC(=O)OC(CC(=O)[O-])C[N+](C)(C)C` [Decanoyl-L-carnitine], the LC retention time turned out to be 7.63 min.
With `CC(=O)C1C(=O)C=C(C)OC1=O` (stereo unspecified) [Dehydroacetic acid], the LC retention time stood at 6.42 min.
The result for `CNCC(O)c1ccc(O)c(O)c1` (stereo unspecified) [EPINEPHRINE] reads 0.74 min; that for `CCCCCCCCC=CCCCCCCCCCCCC(=O)O` [ERUCATE], 13.5 min.
For `CC12CCC3c4ccc(O)cc4CCC3C1CCC2O` (stereo not drawn) [ESTRADIOL-17ALPHA], the LC retention time is 8.07 min.
On to `CCOC(=O)Cc1c[nH]c2ccccc12` [ETHYL 3-INDOLEACETATE], for which the LC retention time turned out to be 8.03 min.
Take `CCC(C(=O)O)C(=O)O` [ETHYLMALONATE]: the LC retention time came to 3.77 min.
In the case of `COc1cc(C=CC(=O)O)ccc1O` [FERULATE], the LC retention time stood at 5.67 min.
Regarding `Nc1nc2ncc(CNc3ccc(C(=O)NC(CCC(=O)O)C(=O)O)cc3)nc2c(=O)[nH]1` (stereo unspecified) [FOLATE], the LC retention time worked out at 4.68 min.
With `O=P(O)(O)OCC1OC(O)(CO)C(O)C1O` (stereo unspecified) [FRUCTOSE 6-PHOSPHATE] the figure was 0.66 min; with `OCC1OC(O)C(O)C(O)C1O` (stereo unspecified) [GALACTOSE], 0.64 min; with `O=C1OC(CO)C(O)C(O)C1O` (stereo unspecified) [GLUCONOLACTONE], 0.64 min.
With `NC(C(=O)O)C(O)C(O)C(O)CO` (stereo unspecified) [GLUCOSAMINATE], the LC retention time was 0.62 min.
As for `NC1C(O)OC(COP(=O)(O)O)C(O)C1O` (stereo unspecified) [GLUCOSAMINE 6-PHOSPHATE], the LC retention time was determined as 0.6 min.
The result for `NC1C(O)OC(COS(=O)(=O)O)C(O)C1O` (stereo unspecified) [GLUCOSAMINE 6-SULFATE] reads 0.62 min.
The result for `O=CC(O)CO` (stereo unspecified) [GLYCERALDEHYDE] reads 0.64 min; that for `O=P(O)(O)OCC(O)CO` (stereo unspecified) [GLYCEROL 3-PHOSPHATE], 0.67 min.
Consider `CCCCCCCCCCCCCC(=O)OCC(O)CO` (stereo unspecified) [GLYCEROL-MYRISTATE], for which the LC retention time was determined as 11.2 min.
With `OCC(O)CO` [GLYCEROL] the figure was 0.68 min; with `NC(N)=NCC(=O)O` [GUANIDINOACETATE], 0.62 min.
In the case of `NC(N)=NC(CC(=O)O)C(=O)O` (stereo unspecified) [GUANIDINOSUCCINATE], the LC retention time was 0.67 min.
With `Nc1nc2nc[nH]c2c(=O)[nH]1` [GUANINE] the figure was 0.78 min; with `Nc1nc2c(ncn2C2OC(COP(=O)(O)OP(=O)(O)OC3OC(CO)C(O)C(O)C3O)C(O)C2O)c(=O)[nH]1` (stereo unspecified) [GUANOSINE DIPHOSPHATE MANNOSE], 4.1 min; with `Nc1nc2c(ncn2C2OC(COP(=O)(O)O)C(O)C2O)c(=O)[nH]1` (stereo unspecified) [GUANOSINE MONOPHOSPHATE], 0.81 min.
With `Nc1nc2c(ncn2C2OC(CO)C(O)C2O)c(=O)[nH]1` (stereo unspecified) [GUANOSINE] the figure was 1.26 min; with `NCC(=O)NCC(=O)O` [Gly-Gly], 0.62 min; with `[NH3+]CC(=O)N1CCCC1C(=O)[O-]` (stereo unspecified) [Gly-Pro], 0.82 min.
With `CCCCCCCCCCCCCCCCC(=O)O` [HEPTADECANOATE] the figure was 12.7 min; with `O=C(O)CNC(=O)c1ccccc1` [HIPPURATE], 4.92 min.
With `NC(CO)Cc1cnc[nH]1` (stereo unspecified) [HISTIDINOL], the LC retention time came out at 0.54 min.
`NC1CCSC1=O` (stereo unspecified) [HOMOCYSTEINE THIOLACTONE]: the LC retention time turned out to be 0.72 min.
With `NC(CCS)C(=O)O` (stereo unspecified) [HOMOCYSTEINE] the figure was 0.72 min; with `NC(CCSSCCC(N)C(=O)O)C(=O)O` (stereo unspecified) [HOMOCYSTINE], 0.72 min; with `NC(CCO)C(=O)O` (stereo unspecified) [HOMOSERINE], 0.62 min.
With `COc1cc(CC(=O)O)ccc1O` [HOMOVANILLATE] the figure was 5.13 min.
Regarding `Nc1c(O)cccc1C(=O)CC(N)C(=O)O` (stereo unspecified) [HYDROXYKYNURENINE], the LC retention time turned out to be 0.88 min.
With `O=C(O)C(O)Cc1ccc(O)cc1` (stereo unspecified) [HYDROXYPHENYLLACTATE], the LC retention time was 4.38 min.
`NCCS(=O)O` [HYPOTAURINE]: the LC retention time stood at 0.63 min.
With `O=c1[nH]cnc2nc[nH]c12` [HYPOXANTHINE] the figure was 0.83 min.
`CCCCCC(=O)OC(CC(=O)[O-])C[N+](C)(C)C` [Hexanoyl-L-carnitine]: the LC retention time was 5.67 min.
The result for `NC(=O)Cc1c[nH]c2ccccc12` [INDOLE-3-ACETAMIDE] reads 5.37 min; that for `OCCc1c[nH]c2ccccc12` [INDOLE-3-ETHANOL], 6.28 min; that for `COC(=O)Cc1c[nH]c2ccccc12` [INDOLE-3-METHYL ACETATE], 7.44 min.
The result for `O=C(O)C(=O)Cc1c[nH]c2ccccc12` [INDOLE-3-PYRUVATE] reads 6 min; that for `O=CCc1c[nH]c2ccccc12` [INDOLEACETALDEHYDE], 4.34 min.
On to `O=S(=O)(O)Oc1c[nH]c2ccccc12` [INDOXYL SULFATE], for which the LC retention time was found to be 4.77 min.
As to `O=c1[nH]cnc2c1ncn2C1OC(CO)C(O)C1O` (stereo unspecified) [INOSINE], the LC retention time was 1.53 min.
The result for `O=C(O)CC(C(=O)O)C(O)C(=O)O` (stereo unspecified) [ISOCITRATE] reads 2.37 min.
In the case of `CCC(C)C(N)C(=O)O` (stereo unspecified) [ISOLEUCINE], the LC retention time was 1.48 min.
With `C=C(CC(=O)O)C(=O)O` [ITACONATE] the figure was 3.2 min.
Turning to `Cc1cc(=O)oc(C)c1C(=O)O` [Isodehydracetic acid], the LC retention time is 4.13 min.
Regarding `O=C(O)c1cc[n+]([O-])cc1` [Isonicotinic acid N-oxide], the LC retention time amounted to 0.81 min.
The result for `CC(C)CC(=O)NCC(=O)O` [Isovaleroylglycine] reads 4.6 min; that for `CC(C)CC(=O)OC(CC(=O)[O-])C[N+](C)(C)C` [Isovaleryl-L-carnitine], 4.92 min.
With `Nc1ccccc1C(=O)CC(N)C(=O)O` (stereo unspecified) [KYNURENINE] the figure was 3.31 min; with `O=C(O)c1cc(=O)c2ccccc2[nH]1` [Kynurenic acid], 4.67 min; with `NC(=O)C[C@H](N)C(=O)O` [L-Asparagine], 0.62 min.
Turning to `O=C1OC(C(O)CO)C(O)C1O` [L-GULONOLACTONE], the LC retention time is 0.66 min.
As for `N[C@@H](CCC(=O)O)C(=O)O` [L-Glutamic acid], the LC retention time was found to be 0.65 min.
With `NC(=O)CC[C@H](N)C(=O)O` [L-Glutamine] the figure was 0.62 min.
With `NC(=O)[C@@H](N)Cc1c[nH]c2ccccc12` [L-TRYPTOPHANAMIDE] the figure was 4.1 min.
With `CCCCCCCCCCCC(=O)OC(CC(=O)[O-])C[N+](C)(C)C` (stereo unspecified) [LAUROYLCARNITINE] the figure was 8.63 min; with `NC(Cc1cc(I)c(Oc2ccc(O)c(I)c2)c(I)c1)C(=O)O` (stereo unspecified) [LIOTHYRONINE], 6.99 min; with `NC(=O)CCCCC1CCSS1` (stereo unspecified) [LIPOAMIDE], 6.53 min.
As for `CC(CCC(=O)O)C1CCC2C3CCC4CC(O)CCC4(C)C3CCC12C` (stereo unspecified) [LITHOCHOLATE], the LC retention time was 10.5 min.
Regarding `CC(CCC(=O)NCCS(=O)(=O)O)C1CCC2C3CCC4CC(O)CCC4(C)C3CCC12C` (stereo unspecified) [LITHOCHOLYLTAURINE], the LC retention time came out at 8.73 min.
The result for `NC(CCCC(N)C(=O)O)C(=O)O` (stereo unspecified) [LL-2-6-DIAMINOHEPTANEDIOATE] reads 0.6 min.
With `Cc1cc2nc3[nH]c(=O)[nH]c(=O)c3nc2cc1C` [LUMICHROME] the figure was 6.03 min; with `NC(=O)C=CC(=O)O` [MALEAMATE], 0.82 min.
Consider `O=C([O-])C=CC(=O)[O-]` [MALEATE], for which the LC retention time came to 0.88 min.
The result for `O=C1C=CC(=O)N1` [MALEIMIDE] reads 0.84 min.
With `O=C(O)CC(=O)O` [MALONATE], the LC retention time was determined as 0.83 min.
With `O=C([O-])C(O)c1ccccc1` (stereo unspecified) [MANDELATE] the figure was 4.72 min; with `COc1ccc2[nH]cc(CCNC(C)=O)c2c1` [MELATONIN], 6.09 min; with `OCC1OC(OCC2OC(O)C(O)C(O)C2O)C(O)C(O)C1O` (stereo unspecified) [MELIBIOSE], 0.63 min.
The result for `O=C(O)C(=O)CS` [MERCAPTOPYRUVATE] reads 0.89 min; that for `O=C([O-])C(O)C(O)C(=O)[O-]` (stereo not drawn) [MESO-TARTRATE], 0.71 min.
With `O=C(O)C(=O)C(=O)O` [MESOXALATE] the figure was 2.05 min.
On to `CS(=N)(=O)CCC(N)C(=O)O` (stereo unspecified) [METHIONINE SULFOXIMINE], for which the LC retention time worked out at 0.62 min.
The result for `COC1OC(CO)C(O)C(O)C1O` (stereo unspecified) [METHYL GALACTOSIDE] reads 0.74 min; that for `COC(=O)c1ccc(O)c(OC)c1` [METHYL VANILLATE], 6.4 min.
